This passage reports Kd results from patent US20250064941A1, “SIGLEC LIGANDS, CONJUGATES, AND METHODS OF USE THEREOF” (Osprey Biopharmaceuticals, Inc., priority 2023, published 2025).

Molecules are shown by their SMILES. pKd: −log10 of the molar value.

Assay [1] concerns the target T1, mouse Siglec-2-Fc-Avi (CD22) (Mus musculus, UniProt P35329).
T1 construct: made in house
T1 sequence (P35329 22-708 limits assumed): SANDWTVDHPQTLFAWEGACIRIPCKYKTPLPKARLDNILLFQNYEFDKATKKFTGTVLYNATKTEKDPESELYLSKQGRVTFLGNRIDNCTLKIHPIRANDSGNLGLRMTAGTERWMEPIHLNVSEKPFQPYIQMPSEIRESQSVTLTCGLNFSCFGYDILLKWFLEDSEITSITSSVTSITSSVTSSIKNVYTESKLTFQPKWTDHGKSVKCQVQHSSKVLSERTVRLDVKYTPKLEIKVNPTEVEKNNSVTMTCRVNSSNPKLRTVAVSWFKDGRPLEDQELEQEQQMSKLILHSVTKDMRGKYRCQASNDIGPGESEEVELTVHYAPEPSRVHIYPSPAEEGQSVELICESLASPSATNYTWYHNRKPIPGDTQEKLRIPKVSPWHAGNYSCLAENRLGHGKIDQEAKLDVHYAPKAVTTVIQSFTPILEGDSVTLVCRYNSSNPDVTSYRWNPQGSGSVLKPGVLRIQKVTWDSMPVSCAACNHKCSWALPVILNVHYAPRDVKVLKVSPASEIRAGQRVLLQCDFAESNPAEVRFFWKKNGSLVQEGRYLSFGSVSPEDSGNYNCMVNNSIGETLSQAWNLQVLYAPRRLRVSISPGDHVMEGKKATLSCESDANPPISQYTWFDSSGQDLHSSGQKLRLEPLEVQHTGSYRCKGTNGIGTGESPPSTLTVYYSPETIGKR
Kind of assay: SPR binding affinity to mouse CD22. Particulars: steady-state analysis. Put shortly:
(§1)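 Native sialic acid residues are removed from the receptor enzymatically (4 hours at 37° C.) prior to streptavidin capture of the biotinylated protein. Ligand compounds then flow over in HEPES-buffered saline, pH 7.5, containing 0.05% Tween-20 and 1% DMSO, and binding is evaluated at steady state.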

Assay [2] addresses T2, human Siglec-2/CD22 protein (Homo sapiens, UniProt P20273).
T2 construct: purchased Acro Biosystems SI2-H82E3
T2 sequence (P20273 20-847): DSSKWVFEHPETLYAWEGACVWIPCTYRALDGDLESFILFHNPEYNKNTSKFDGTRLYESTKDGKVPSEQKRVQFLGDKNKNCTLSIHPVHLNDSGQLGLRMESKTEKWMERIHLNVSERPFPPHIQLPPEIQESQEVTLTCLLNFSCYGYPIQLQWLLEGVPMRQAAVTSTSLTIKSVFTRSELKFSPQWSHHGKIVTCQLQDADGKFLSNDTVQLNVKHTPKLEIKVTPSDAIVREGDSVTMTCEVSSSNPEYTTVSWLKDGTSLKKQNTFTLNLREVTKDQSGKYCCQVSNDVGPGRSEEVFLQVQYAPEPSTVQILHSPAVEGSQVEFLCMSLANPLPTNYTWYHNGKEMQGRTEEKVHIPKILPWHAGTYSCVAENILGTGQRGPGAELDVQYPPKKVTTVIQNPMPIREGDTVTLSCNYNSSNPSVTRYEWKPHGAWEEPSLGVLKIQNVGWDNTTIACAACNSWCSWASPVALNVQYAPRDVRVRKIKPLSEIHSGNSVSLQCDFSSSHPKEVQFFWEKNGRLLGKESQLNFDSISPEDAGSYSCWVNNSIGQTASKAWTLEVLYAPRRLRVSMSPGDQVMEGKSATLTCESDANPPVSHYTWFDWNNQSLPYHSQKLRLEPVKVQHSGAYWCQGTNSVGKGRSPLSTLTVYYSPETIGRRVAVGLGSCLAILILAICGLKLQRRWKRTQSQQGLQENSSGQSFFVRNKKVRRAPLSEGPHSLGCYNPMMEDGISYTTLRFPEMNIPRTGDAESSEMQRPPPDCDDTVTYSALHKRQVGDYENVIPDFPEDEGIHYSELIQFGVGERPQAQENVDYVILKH
Kind of assay: SPR binding affinity to human CD22. The note with it: steady-state analysis. The method in brief:
as §1
(Surface plasmon resonance follows binding to a sensor surface in real time, without labels.)

A further assay concerns the target cynomolgus Siglec-2/CD22 (Macaca fascicularis, UniProt A0A2K5WCZ6). Kind of assay: biochemical. In kind it is binding. Particulars: SPR, steady-state analysis; read-out: Affinity cyno CD22. The method in brief:
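SPR with desialylated (SialoExo, 4 h, 37° C.) cynomolgus CD22 amine-coupled to a CM5 chip. Running buffer 10 mM HEPES, 150 mM NaCl, 0.05% Tween-20, pH 7.5, 1% DMSO, with solvent correction; 120 s dissociation. Affinities from steady-state analysis.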

cynomolgus Siglec-2/CD22, sequence (A0A2K5WCZ6 entry or part of it): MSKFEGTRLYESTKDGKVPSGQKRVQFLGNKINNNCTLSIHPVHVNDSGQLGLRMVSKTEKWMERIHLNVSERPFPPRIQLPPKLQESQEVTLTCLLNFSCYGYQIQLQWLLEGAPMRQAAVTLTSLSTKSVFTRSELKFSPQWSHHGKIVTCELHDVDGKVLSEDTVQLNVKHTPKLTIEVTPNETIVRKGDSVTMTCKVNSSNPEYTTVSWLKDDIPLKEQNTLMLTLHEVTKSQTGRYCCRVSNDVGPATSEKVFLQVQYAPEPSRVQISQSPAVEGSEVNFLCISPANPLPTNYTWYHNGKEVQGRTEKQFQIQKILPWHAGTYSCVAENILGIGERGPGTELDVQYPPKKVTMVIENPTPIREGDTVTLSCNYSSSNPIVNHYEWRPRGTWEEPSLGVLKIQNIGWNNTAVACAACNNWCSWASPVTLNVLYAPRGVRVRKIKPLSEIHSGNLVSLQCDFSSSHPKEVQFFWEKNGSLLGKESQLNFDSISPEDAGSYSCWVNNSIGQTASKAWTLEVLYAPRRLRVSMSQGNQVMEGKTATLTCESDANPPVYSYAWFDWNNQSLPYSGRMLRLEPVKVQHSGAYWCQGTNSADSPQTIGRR

Consider `C#CCOc1ccc(CO[C@]2(C(=O)O)C[C@H](O)[C@@H](NC(=O)CO)[C@H]([C@H](O)[C@H](O)CNC(=O)Cc3ccc(O)cc3)O2)cc1` [Compound 146, (2R,4S,5R,6R)-6-((1R,2R)-1,2-dihydroxy-3-(2-(4-hydroxyphenyl)acetamido)propyl)-4-hydroxy-5-(2-hydroxyacetamido)-2-((4-(prop-2-yn-1-yloxy)benzyl)oxy)tetrahydro-2H-pyran-2-carboxylic acid], for which the pKd was 5.00 to 6.00 in assay [1], 5.00 to 6.00 in assay [2] and above 6.00 on cynomolgus Siglec-2/CD22.
On to `C#CCCCCCCc1cn([C@]2(C(=O)O)C[C@H](O)[C@@H](NC(=O)CO)[C@H]([C@H](O)[C@H](O)CNC(=O)Cc3cccc(O)c3)O2)nn1` [Compound 147, (2R,4S,5R,6R)-6-((1R,2R)-1,2-dihydroxy-3-(2-(3-hydroxyphenyl)acetamido)propyl)-4-hydroxy-5-(2-hydroxyacetamido)-2-(4-(oct-7-yn-1-yl)-1H-1,2,3-triazol-1-yl)tetrahydro-2H-pyran-2-carboxylic acid], for which the pKd (in assay [1]; in assay [2]; on cynomolgus Siglec-2/CD22) was 5.00 to 6.00 throughout.
With `C#CCCOc1ccc(CS[C@]2(C(=O)O)C[C@H](O)[C@@H](NC(=O)CO)[C@H]([C@H](O)[C@H](O)CNC(=O)Cc3ccc(O)cc3)O2)cc1` [Compound 148, (2S,4S,5R,6R)-2-((4-(but-3-yn-1-yloxy)benzyl)thio)-6-((1R,2R)-1,2-dihydroxy-3-(2-(4-hydroxyphenyl)acetamido)propyl)-4-hydroxy-5-(2-hydroxyacetamido)tetrahydro-2H-pyran-2-carboxylic acid], the pKd was above 6.00 in assay [1], above 6.00 in assay [2] and 5.00 to 6.00 on cynomolgus Siglec-2/CD22.
`C#CCCOc1ccc(CS[C@]2(C(=O)O)C[C@H](O)[C@@H](NC(=O)CO)[C@H]([C@H](O)[C@H](O)CNC(=O)Cc3cccc(O)c3)O2)cc1` [Compound 149, (2S,4S,5R,6R)-2-((4-(but-3-yn-1-yloxy)benzyl)thio)-6-((1R,2R)-1,2-dihydroxy-3-(2-(3-hydroxyphenyl)acetamido)propyl)-4-hydroxy-5-(2-hydroxyacetamido)tetrahydro-2H-pyran-2-carboxylic acid]: the results for the pKd (in assay [1]; in assay [2]; on cynomolgus Siglec-2/CD22) were 5.00 to 6.00, above 6.00 and 5.00 to 6.00, respectively.
In the case of `C#CCOc1ccc(CO[C@]2(C(=O)O)C[C@H](O)[C@@H](NC(=O)CO)[C@H]([C@H](O)[C@H](O)CNC(=O)Cc3cccc(O)c3)O2)cc1` [Compound 150, (2R,4S,5R,6R)-6-((1R,2R)-1,2-dihydroxy-3-(2-(3-hydroxyphenyl)acetamido)propyl)-4-hydroxy-5-(2-hydroxyacetamido)-2-((4-(prop-2-yn-1-yloxy)benzyl)oxy)tetrahydro-2H-pyran-2-carboxylic acid], the pKd in assay [1] was 5.00 to 6.00; in assay [2], above 6.00; on cynomolgus Siglec-2/CD22 it was 5.00 to 6.00.
Consider `C#CCOCCOCCO[C@]1(C(=O)O)C[C@H](O)[C@@H](NC(=O)CO)[C@H]([C@H](O)[C@H](O)CNC(=O)Cc2ccccc2O)O1` [Compound 151, (2R,4S,5R,6R)-6-((1R,2R)-1,2-dihydroxy-3-(2-(2-hydroxyphenyl)acetamido)propyl)-4-hydroxy-5-(2-hydroxyacetamido)-2-(2-(2-(prop-2-yn-1-yloxy)ethoxy)ethoxy)tetrahydro-2H-pyran-2-carboxylic acid], for which the pKd was 5.00 to 6.00 in assay [1], 5.00 to 6.00 in assay [2] and below 5.00 at cynomolgus Siglec-2/CD22.
With `C#CCOCCOCCO[C@]1(C(=O)O)C[C@H](O)[C@@H](NC(=O)CO)[C@H]([C@H](O)[C@H](O)CNC(=O)Cc2cccc(O)c2)O1` [Compound 152, (2R,4S,5R,6R)-6-((1R,2R)-1,2-dihydroxy-3-(2-(3-hydroxyphenyl)acetamido)propyl)-4-hydroxy-5-(2-hydroxyacetamido)-2-(2-(2-(prop-2-yn-1-yloxy)ethoxy)ethoxy)tetrahydro-2H-pyran-2-carboxylic acid], the pKd in assay [1] was above 6.00; in assay [2], 5.00 to 6.00; on cynomolgus Siglec-2/CD22, 5.00 to 6.00.
Take `C#CCOCCOCCO[C@]1(C(=O)O)C[C@H](O)[C@@H](NC(=O)CO)[C@H]([C@H](O)[C@H](O)CNC(=O)Cc2ccc(O)cc2)O1` [Compound 153, (2R,4S,5R,6R)-6-((1R,2R)-1,2-dihydroxy-3-(2-(4-hydroxyphenyl)acetamido)propyl)-4-hydroxy-5-(2-hydroxyacetamido)-2-(2-(2-(prop-2-yn-1-yloxy)ethoxy)ethoxy)tetrahydro-2H-pyran-2-carboxylic acid]: the pKd in assay [1] is above 6.00; in assay [2], 5.00 to 6.00; on cynomolgus Siglec-2/CD22 it was 5.00 to 6.00.
For `O=C(O)CCOCCOCCOCCOCCNc1c(NCCCCCCO[C@]2(C(=O)O)C[C@H](O)[C@@H](NC(=O)CO)[C@H]([C@H](O)[C@H](O)CNC(=O)Cc3ccc(Cl)cc3)O2)c(=O)c1=O` [Compound 154, (2R,4S,5R,6R)-2-((6-((2-((14-carboxy-3,6,9,12-tetraoxa-tetradecyl)amino)-3,4-dioxocyclobut-1-en-1-yl)amino)hexyl)oxy)-6-((1R,2R)-3-(2-(4-chlorophenyl)acetamido)-1,2-dihydroxypropyl)-4-hydroxy-5-(2-hydroxyacetamido) tetrahydro-2H-pyran-2-carboxylic acid], the pKd (in assay [1]; in assay [2]; on cynomolgus Siglec-2/CD22) was above 6.00 throughout.
On to `C#CCOCCCCCCO[C@]1(C(=O)O)C[C@H](O)[C@@H](NC(=O)CO)[C@H]([C@H](O)[C@H](O)CNC(=O)Cc2cccc(OC(F)(F)F)c2)O1` [Compound 155, (2R,4S,5R,6R)-6-((1R,2R)-1,2-dihydroxy-3-(2-(3-(trifluoromethoxy)phenyl)acetamido)propyl)-4-hydroxy-5-(2-hydroxyacetamido)-2-((6-(prop-2-yn-1-yloxy)hexyl)oxy)tetrahydro-2H-pyran-2-carboxylic acid], for which the pKd in assay [1] was 5.00 to 6.00; in assay [2], above 6.00; on cynomolgus Siglec-2/CD22 it was above 6.00.
On to `C#CCOCCCCCCO[C@]1(C(=O)O)C[C@H](O)[C@@H](NC(=O)CO)[C@H]([C@H](O)[C@H](O)CNC(=O)Cc2ccc(OC(F)(F)F)cc2)O1` [Compound 156, (2R,4S,5R,6R)-6-((1R,2R)-1,2-dihydroxy-3-(2-(4-(trifluoromethoxy)phenyl)acetamido)propyl)-4-hydroxy-5-(2-hydroxyacetamido)-2-((6-(prop-2-yn-1-yloxy)hexyl)oxy)tetrahydro-2H-pyran-2-carboxylic acid], for which the figures for the pKd (in assay [1]; in assay [2]; on cynomolgus Siglec-2/CD22) were 5.00 to 6.00, above 6.00 and above 6.00, respectively.
For `C#CCOCCCCCCO[C@]1(C(=O)O)C[C@H](O)[C@@H](NC(=O)CO)[C@H]([C@H](O)[C@H](O)CNC(=O)Cc2ccc(C(F)F)cc2)O1` [Compound 157, (2R,4S,5R,6R)-6-((1R,2R)-3-(2-(4-(difluoromethyl)phenyl)acetamido)-1,2-dihydroxypropyl)-4-hydroxy-5-(2-hydroxyacetamido)-2-((6-(prop-2-yn-1-yloxy)hexyl)oxy)tetrahydro-2H-pyran-2-carboxylic acid], the pKd (in assay [1]; in assay [2]; on cynomolgus Siglec-2/CD22) was above 6.00 throughout.
